The assay deals with T1, thrombin enzyme (Homo sapiens, UniProt P00734).
T1 construct: from tissue; host or cells: whole blood (drop of blood, 10 µl)
Put plainly: specificity of the specific reagent vis-à-vis the thrombin enzyme, progressive inhibition by r-hirudin. Particulars: whole blood, thrombin inhibited by increasing r-hirudin. The class given is biochemical. Here is the method: In the experiments reported hereinafter, potentiostatic measurements were performed by chronoamperometry by means of a potentiostat PGP 201 connected to the Vm1 software of Radiometer (Copenhagen) allowing the following conditions to be obtained:
The surface of the working electrode of the sensor used is 0.035 cm^2 and the sample quantity, drop of blood, or reference solution is 10 μl. the recording of measurements starts 10 seconds after the sample is deposited. The oligopeptide used, hereinafter designated according to use by <>, selected from those indicated previously, is:
Given that whole blood contains extremely numerous constituents, the present experiment allows it to be shown that only the thrombin enzyme is capable of cutting the specific reagent substrate. The experiment is performed in the optimisation conditions defined by experiment 3 (namely PC/PS in the ratio 25/75, Hepes buffer and lyophilisation) starting with a dilution in equal parts of blood and buffer solution and progressively inhibiting the thrombin enzyme by increasing concentrations of r-hirudin (r-hirudin 2000 ATU/bulb, available from Pentapharm AG, Basel, Switzerland) which replace the buffer solution, preferably having checked that the factor Xa is not inhibited by r-hirudin. […]

Results on one substance are retold here after patent publication US6352630B1, “Electrochemical system for determining blood coagulation time” (Asulab S.A., priority 1999, dated 2002).

On to “Tos-Gly-Pro-Arg-3-chloro-4-hydroxyanilide, 2HCl [substrate]”, for which the “cutting of the substrate, selectivity” value is “selectively cut off by thrombin”.
